This is an account of results in PMC9151520 (Archives of Toxicology, 2022).

Series [1] relates to p53 signaling (p53RE-bla HCT-116 cells). In words: cells. It is filed as cell-based.
Series [2] shares this test system.
Series [3] has the same test system. The source holds these as a separate data set.
For series [4] the test system is unchanged. Kind of series: cells. The settings on record: Homo sapiens; for EC50: HCT-116, read-out: p53 activation EC50, RLM.
The test system is the same in series [5]. In words: cells. The settings on record: Homo sapiens.
[6] abbreviates: HCT-116, read-out: p53 activation EC50, HLM.
[7] abbreviates: Homo sapiens, HCT-116, read-out: p53 activation efficacy.
Setting [8] is: HCT-116, read-out: p53 activation efficacy.
[9] abbreviates: HCT-116, read-out: p53 activation EC50.

SMILES strings stand for the structures. Read-outs that look alike come from different tables or passages of the source.

With `Oc1c(Cl)cc(Cl)c(Cl)c1Cl` [2,3,4,6-Tetrachlorophenol], in series [1], the “p53 activation Efficacy, No MS” value was determined as 39.2893%. The EC50 in series [1] (Homo sapiens, HCT-116, read-out: p53 activation EC50, No MS) was 17.7 µM. In addition, in series [1] (Homo sapiens, HCT-116, read-out: p53 activation Efficacy, No MS), the Emax was 37.3%. Also, the EC50 in series [1] (read-out: p53 activation EC50, No MS) came to 34.6 µM. Further, the “p53 activation EC50, RLM” value in series [2] was “inactive”. In series [3], the “p53 activation EC50, HLM” value is “inactive”. In the series on p53RE-bla HCT-116 cells, the “Viability EC50, HLM” value is “inactive”; the “Viability EC50, No MS” value was “inactive”; the “Viability EC50, RLM” value is “inactive”; the “Viability Efficacy, HLM” value is “inactive”. For the same compound, in the series with p53RE-bla HCT-116 cells, the “Viability Efficacy, No MS” value is “inactive” and the “Viability Efficacy, RLM” value is “inactive”. In series [4], the concentration for a half-maximal effect (EC50) was found to be 44.8 µM. In addition, the concentration for a half-maximal effect (EC50) in series [5] (setting [6]) was found to be 34.9 µM.
Regarding `Nc1nc(Cl)nc2c1ncn2[C@H]1C[C@H](O)[C@@H](CO)O1` [Cladribine], the results for the p53 activation efficacy in series [1] and in series [2] were 91.229 and 33.0267, respectively. Besides, the Emax is 81% in series [1] (setting [7]), 45.7% in series [4] (setting [8]) and 47.1% in series [5] (setting [8]). Further, in series [1] (read-out: p53 activation EC50), the EC50 was 0.665 µM. The “p53 activation EC50” value in series [3] is “inactive”. Further, the “Viability EC50” value with p53RE-bla HCT-116 cells is “inactive”. In addition, the Viability efficacy result with p53RE-bla HCT-116 cells is “inactive”.
`COP(=S)(OC)Oc1ccc(S(N)(=O)=O)cc1` [Cythioate]: in series [1], the “p53 activation EC50, No MS” value was “inactive” and the “p53 activation Efficacy, No MS” value was “inactive”. Also, in series [2], the “p53 activation EC50, RLM” value was “inactive” and the “p53 activation Efficacy, RLM” value was “inactive”. In series [3], the “p53 activation EC50, HLM” value was “inactive”. Further, in the series with p53RE-bla HCT-116 cells, the “Viability EC50, HLM” value is “inactive”; the “Viability EC50, No MS” value was “inactive”; the “Viability EC50, RLM” value was “inactive”; the “Viability Efficacy, HLM” value is “inactive”. In addition, in the series on p53RE-bla HCT-116 cells, the “Viability Efficacy, No MS” value is “inactive” and the “Viability Efficacy, RLM” value was “inactive”. For the same compound, in series [5] (setting [6]), the EC50 was determined as 3.59 µM.
For the compound `CCOP(=S)(OCC)SC(CCl)N1C(=O)c2ccccc2C1=O` (centres unmarked) [Dialifor], the “p53 activation EC50” value in series [1] and in series [3] was “inactive” in each case. The p53 activation efficacy result in series [1] was “inactive”; in series [2], 52.0707. The “Viability EC50” value with p53RE-bla HCT-116 cells is “inactive”. Moreover, the Viability efficacy result with p53RE-bla HCT-116 cells is “inactive”. In addition, in series [5] (setting [9]), the EC50 was 3.03 µM.
As for `CNC(=O)Oc1ccccc1C(C)C` [Isoprocarb], in series [1], the “p53 activation EC50, No MS” value is “inactive” and the “p53 activation Efficacy, No MS” value is “inactive”. The EC50 in series [2] (read-out: p53 activation EC50, RLM) amounted to 12.5 µM. Besides, in series [3], the “p53 activation EC50, HLM” value was “inactive”. For the same compound, in the series on p53RE-bla HCT-116 cells, the “Viability EC50, HLM” value is “inactive”; the “Viability EC50, No MS” value is “inactive”; the “Viability EC50, RLM” value was “inactive”; the “Viability Efficacy, HLM” value was “inactive”. Besides, in the series on p53RE-bla HCT-116 cells, the “Viability Efficacy, No MS” value was “inactive” and the “Viability Efficacy, RLM” value is “inactive”. Further, the EC50 in series [4] was found to be 12 µM. For the same compound, the EC50 in series [5] (setting [6]) was 8.87 µM.
On to `Oc1c(Cl)c(Cl)c(Cl)c(Cl)c1Cl` [Pentachlorophenol], for which, in series [1] (Homo sapiens, HCT-116, read-out: EC50, p53 activation, cherry pick confirmation), the EC50 was 14.1 µM. The EC50 in series [1] (Homo sapiens, HCT-116, read-out: EC50, p53 activation, primary screening) amounted to 13.4 µM. Further, the Emax in series [1] (Homo sapiens, HCT-116, read-out: Efficacy, p53 activation, cherry pick confirmation) came out at 32.5%. In addition, in series [1] (Homo sapiens, HCT-116, read-out: Efficacy, p53 activation, primary screening), the Emax was 47.3%. Moreover, in series [2], the “EC50, p53 activation, cherry pick confirmation” value is “inactive”; the “EC50, p53 activation, primary screening” value is “inactive”; the “Efficacy, p53 activation, cherry pick confirmation” value is “inactive”; the “Efficacy, p53 activation, primary screening” value is “inactive”. In series [3], the “EC50, p53 activation, cherry pick confirmation” value was “inactive” and the “Efficacy, p53 activation, cherry pick confirmation” value was “inactive”. In addition, in the series on p53RE-bla HCT-116 cells, the “EC50, viability, cherry pick confirmation” value is “inactive”; the “EC50, viability, primary screening” value is “inactive”; the “Efficacy, viability, cherry pick confirmation” value was “inactive”; the “Efficacy, viability, primary screening” value was “inactive”. Moreover, in series [5] (HCT-116, read-out: EC50, p53 activation, primary screening), the EC50 was 15.5 µM. The Emax in series [5] (HCT-116, read-out: Efficacy, p53 activation, primary screening) was determined as 30.9%.
`CNC(=O)Oc1ccc2c(c1)[C@]1(C)CCN(C)[C@@H]1N2C` [Physostigmine]: in series [1], the “p53 activation EC50, No MS” value was “inactive” and the “p53 activation Efficacy, No MS” value was “inactive”. Besides, in series [2], the “p53 activation EC50, RLM” value was “inactive” and the “p53 activation Efficacy, RLM” value is “inactive”. The “p53 activation EC50, HLM” value in series [3] is “inactive”. In the series with p53RE-bla HCT-116 cells, the “Viability EC50, HLM” value was “inactive”; the “Viability EC50, No MS” value was “inactive”; the “Viability EC50, RLM” value is “inactive”; the “Viability Efficacy, HLM” value was “inactive”. In the series with p53RE-bla HCT-116 cells, the “Viability Efficacy, No MS” value was “inactive” and the “Viability Efficacy, RLM” value is “inactive”. Also, in series [5] (setting [6]), the half-maximal effective concentration (EC50) is 7.07 µM.
In the case of `COC(=O)N(OC)c1ccccc1COc1ccn(-c2ccc(Cl)cc2)n1` [Pyraclostrobin], the p53 activation efficacy is 41.5523 in series [1] and “inactive” in series [2]. In addition, the Emax in series [1] (setting [7]) worked out at 36.4%; in series [5] (setting [8]), 36.3%. In series [1] (read-out: p53 activation EC50), the concentration giving a half-maximal response (EC50) was found to be 2.62 µM. The “p53 activation EC50” value in series [2] and in series [3] was “inactive” in each case. For the same compound, the “Viability EC50” value in the series with p53RE-bla HCT-116 cells was “inactive”. Besides, the Viability efficacy entry in the series with p53RE-bla HCT-116 cells was “inactive”.
As to `CC(=O)NS(=O)(=O)c1ccc(N)cc1` [Sulfacetamide], in series [1], the “p53 activation EC50, No MS” value is “inactive” and the “p53 activation Efficacy, No MS” value was “inactive”. Also, in series [2], the “p53 activation EC50, RLM” value was “inactive” and the “p53 activation Efficacy, RLM” value was “inactive”. Also, the “p53 activation EC50, HLM” value in series [3] is “inactive”. Further, in the series with p53RE-bla HCT-116 cells, the “Viability EC50, HLM” value was “inactive”; the “Viability EC50, No MS” value is “inactive”; the “Viability EC50, RLM” value is “inactive”; the “Viability Efficacy, HLM” value was “inactive”. Besides, in the series on p53RE-bla HCT-116 cells, the “Viability Efficacy, No MS” value was “inactive” and the “Viability Efficacy, RLM” value was “inactive”. For the same compound, in series [5] (setting [6]), the EC50 was determined as 44.2 µM.
For the compound `C[C@]12CC[C@H]3[C@@H](CC[C@@]45O[C@@H]4C(O)=C(C#N)C[C@]35C)[C@@H]1CC[C@@H]2O` [Trilostane], the “p53 activation EC50” value in series [1], in series [2] and in series [3] was “inactive” throughout. Also, the EC50 in series [1] (Homo sapiens, HCT-116, read-out: p53 activation EC50) was found to be 44.1 µM; in series [5] (setting [9]), 41 µM. For the same compound, the Emax came to 98.3% in series [1] (setting [7]) and 53.3% in series [5] (setting [8]). The p53 activation efficacy result in series [2] is “inactive”. In addition, in the series with p53RE-bla HCT-116 cells, the “Viability EC50” value is “inactive”. In addition, the Viability efficacy result in the series with p53RE-bla HCT-116 cells is “inactive”.
Turning to `Cl[C@H]1[C@H](Cl)[C@@H](Cl)[C@H](Cl)[C@@H](Cl)[C@@H]1Cl` [beta-Hexachlorocyclohexane], in series [1], the “p53 activation EC50, No MS” value was “inactive” and the “p53 activation Efficacy, No MS” value was “inactive”. For the same compound, in series [2], the “p53 activation EC50, RLM” value was “inactive” and the “p53 activation Efficacy, RLM” value was “inactive”. Further, the “p53 activation EC50, HLM” value in series [3] is “inactive”. Besides, in the series with p53RE-bla HCT-116 cells, the “Viability EC50, HLM” value was “inactive”; the “Viability EC50, No MS” value was “inactive”; the “Viability EC50, RLM” value was “inactive”; the “Viability Efficacy, HLM” value was “inactive”. Further, in the series on p53RE-bla HCT-116 cells, the “Viability Efficacy, No MS” value is “inactive” and the “Viability Efficacy, RLM” value was “inactive”. For the same compound, in series [5] (setting [6]), the EC50 came to 47.3 µM.

By EC50 is commonly meant the concentration that produces a half-maximal response.
